Where two headings read alike, the source gives them in different places. *1 amine or outer side, *2 acyl side, *3 side chain or, on linkers, in order; H or OH if unused. Where a SMILES comes first, the peptide text is derived from it. Bridges are numbered along the chain shown (N, C = ends). [ ]: non-standard residue; d: D form. The star is where a group is joined. ξ: configuration not given here. Ala(piperidin-4-yl) = O=C([C@H](CC1CCN([*:3])CC1)N[*:1])[*:2]; DOTA = O=C(O)CN1CCN(CC(=O)O)CCN(CC(=O)*)CCN(CC(=O)O)CC1; X2 = O=C(Cc1ccc(I)cc1)NCCOCCOCCOCCOCCOCCOCCOCCOCC(=O)*; 2Nal = N[C@@H](Cc1ccc2ccccc2c1)C(=O)O; NMetBuAla = CN[C@@H](CC(C)(C)C)C(=O)O; Thr(3ξ) = CC(O)[C@H](N)C(=O)O; Chg = N[C@H](C(=O)O)C1CCCCC1; NMeNle = CCCC[C@H](NC)C(=O)O; Tle = CC(C)(C)[C@H](N)C(=O)O; αMeP = C[C@@]1(C(=O)O)CCCN1; CH2 = C([*:1])[*:2]
Experiments:
[1] = target: T1, DLL3 (Homo sapiens, UniProt Q9NYJ7); experiment: SPR KD, biotinylated human DLL3 on streptavidin chip (Table 8); parameters: biotin (biotinylated)
T1 sequence (Q9NYJ7 27-618): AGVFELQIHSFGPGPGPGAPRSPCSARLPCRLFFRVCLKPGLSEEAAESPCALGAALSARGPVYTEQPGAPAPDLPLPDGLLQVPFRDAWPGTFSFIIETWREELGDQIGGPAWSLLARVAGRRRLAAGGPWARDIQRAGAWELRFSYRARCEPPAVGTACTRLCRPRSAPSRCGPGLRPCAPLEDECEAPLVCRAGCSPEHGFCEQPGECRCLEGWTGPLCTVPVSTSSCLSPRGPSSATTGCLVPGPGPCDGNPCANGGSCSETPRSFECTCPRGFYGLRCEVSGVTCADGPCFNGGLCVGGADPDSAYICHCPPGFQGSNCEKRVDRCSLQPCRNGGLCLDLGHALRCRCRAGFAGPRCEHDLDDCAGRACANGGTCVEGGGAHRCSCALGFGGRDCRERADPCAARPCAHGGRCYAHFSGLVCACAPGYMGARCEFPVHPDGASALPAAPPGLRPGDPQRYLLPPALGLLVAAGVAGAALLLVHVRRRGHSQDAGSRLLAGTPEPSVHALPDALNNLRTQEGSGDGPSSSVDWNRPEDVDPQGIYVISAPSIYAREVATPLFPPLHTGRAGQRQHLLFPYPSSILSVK
Text: Biotinylated target ligand human DLL3 was immobilized on a streptavidin sensor chip. A reference surface was set up for nonspecific binding and refractive index changes. […] Sensorgram curves were fitted with 1:1 binding model, and affinity and kinetic parameters were obtained using Biacore Insight evaluation 4.0. software.

[2] = system: SHP-77 cells; experiment: Cell binding (total uptake) of [177Lu]Lu-labeled peptide, SHP-77 cells; format: cell-based; settings: 1 h, 37° C.
Method: (§1) [^177Lu]LuCl3 was received from venders in HCl solution. For every mCi of [^177Lu]LuCl3 added to the reaction vial (1.5 mL Eppendorf vial), ammonium acetate buffer (0.2 M, pH 4.9, 100 μL, containing 1% w/v ascorbic acid and 6% v/v ethanol) and peptide conjugate (1 nmol; also referred to herein as “chelator-peptides”) was added. The pH of the solution was determined to be approximately 5 by using pH strips. The reaction vial was incubated at 80° C., 700 RPM for 17-20 minutes. A sample from the reaction was analyzed by RP-HPLC using an Agilent Infinity II 1260 HPLC to determine reaction completion and radiochemical purity of [^177Lu]Lu-chelator-peptides. HPLC conditions: Waters XBridge BEH C18 Column, 130A, 3.5 μm, 4.6 mm×250 mm; mobile phase: Solvent A=water (with 0.1% formic acid), solvent B=acetonitrile (with 0.1% formic acid). Gradients: 25-45% B in 10 minutes, 45-65% B in 12 minutes, 65-90% in 6 minutes at a flow rate of 0.5 mL/minutes Required amounts of the product was formulated in 1% PBSA for cell studies.
(§2) The study was conducted using SHP-77, CT26.WT, CT26.DLL3, and HEK293.DLL3 cells (Table 9)
(§3) Adherent cell studies: The cells were cultured in appropriate culture media (20 mL) in tissue culture treated T150 flasks at 37° C. and 5% C02. Adherent cells were detached (60-70% confluent) using 5 mL Versene at 37° C. for 3 minutes. After confirming the viability using countess and count of detached cells using Trypan blue, the cells were centrifuged at 4° C. for 5 minutes (1,000 rpm). The cell pellet obtained was washed once with PBS and resuspended in 1% PBSA to obtain the desired cell concentration (5-25 million cells/mL).
as §3, with “Suspension” for “Adherent”, “CO2.” for “C02. Adherent cells were detached (60-70% confluent) using 5 mL Versene at 37° C. for 3 minutes.”, “viability” for “viability using countess”
(§4) Cell numbers used for the assay were in the range of 5 million cells/condition-25 million cells/condition.
(§5) Total uptake: Cells were incubated with 300 μL (0.8 μCi) of the incubation buffer (containing radiolabeled peptide [^177Lu]Lu-test peptide) for 1 hour at 37° C. (Table 10). Post incubation, the cells were pelleted and washed 2 times using cold PBS+1% BSA. The supernatant and washes were combined and counted together as “unbound fraction” in a gamma counter. The cells were then resuspended in 300 μL of 1% PBS+1% BSA and counted in the gamma counter as “bound fraction”.
(§6) In these Tables, “A” represents % s ≤25; “B” represents 25 <% ≤50; “C” represents % >50.

[3] = system: SHP-77 cells; experiment: Internalization of [177Lu]Lu-labeled peptide, SHP-77 cells; format: cell-based; settings: 1 h, 37° C.
Method: as §1, §2, §3
as §3, with “Suspension” for “Adherent”, “CO2.” for “C02. Adherent cells were detached (60-70% confluent) using 5 mL Versene at 37° C. for 3 minutes.”, “viability” for “viability using countess”
as §4
(§7) Internalization: The resuspended cells in 300 μL of 1% PBSA and counted in the gamma counter as “bound fraction” were collected in 1.5 mL Eppendorf tube and pelleted. The pelleted cells were incubated with 300 μL of 50 mM Glycine pH=2.5 for 3 minutes and then pelleted discarding the supernatant. This process was repeated one more time. The pelleted cells were washed with 300 μL of cold 1% PBSA and then resuspended in 300 μl 0.3M NaOH. This was counted in the gamma counter as “internalized fraction”.
as §6

[4] = system: nude mice bearing SHP-77 tumors; experiment: Ex vivo biodistribution of radiolabeled peptides (% IA/g) in nude mice bearing SHP-77 tumors; settings: [177Lu]Lu labelling, 24 hours post-injection, intravenous
Method: Mice were intravenously injected (via the lateral tail vein) with a bolus dose of the radiolabeled peptides for ex vivo biodistribution studies when tumor volumes were in range of 200-400 mm^3 for xenograft mice and when age of the mice was 5-7 weeks for tumor naïve mice studies. To assess the amount of radionuclide injected into individual mice the syringe was assayed in a dose calibrator before and after injection for [^177Lu]Lu-peptide, then the injected dose was determined from the weight difference and concentration of the radionuclide solution.
Mice were euthanized at pre-determined time points and selected tissues were resected and collected into pre-weighed tubes. The tubes were then reweighed post resection, the difference giving the weight of each tissue. Radioactivity in each tissue was measured using a gamma counter. Counts were decay corrected to the time of injection and percentage of injected activity per gram (% IA/g) was calculated for each tissue based on the injected activity into each individual mouse. Injected activity was converted to counts based on the sensitivity of the gamma counter. The counts in tissue were then converted to the percentage of injected activity and this was divided by the mass of tissue to give % IA/g.

[5] = system: CT26.DLL3 cells; experiment: Cell binding (total uptake) of [177Lu]Lu-labeled peptide, CT26.DLL3 cells; format: cell-based; settings: 1 h, 37° C.
Method: as §1, §2, §3, §4, §5, §6

[6] = system: CT26.DLL3 cells; experiment: Internalization of [177Lu]Lu-labeled peptide, CT26.DLL3 cells; format: cell-based; settings: 1 h, 37° C.
Method: as §1, §2, §3, §4, §7, §6

[7] = biotinylated human DLL3 on streptavidin sensor chip, 25° C., 1:1 binding model; read-out: SPR KD

SMILES	Kd [1, 7] [nM]	% Binding [2]	% Internalization (out of bound fraction) [3]	kidney uptake (% IA/g) [4]	tumor uptake (% IA/g) [4]	% Binding [5]	% Internalization (out of bound fraction) [6]	Kd ([1]; read-out: SPR KD; biotinylated human DLL3 on streptavidin sensor chip, 25° C., 1:1 binding model) [nM]
CC(=O)N[C@@H](Cc1c[nH]c2ccccc12)C(=O)N[C@H](C(=O)N(C)[C@@H](CC(C)(C)C)C(=O)N[C@H]1CSCSC[C@@H](C(=O)N[C@@H](Cc2c[nH]c3ccccc23)C(=O)N2CCC[C@@]2(C)C(N)=O)NC(=O)[C@H](CC(=O)O)NC(=O)[C@H](CCCCNC(=O)CN2CCN(CC(=O)O)CCN(CC(=O)O)CCN(CC(=O)O)CC2)NC(=O)[C@H](Cc2ccc3ccccc3c2)NC(=O)[C@H](CC(N)=O)NC(=O)[C@H](CC2CCNCC2)NC1=O)[C@@H](C)O [compound 236, Ac-W-T-(NMe-tBuAla)-C(1)-[3-(4-piperidinyl)-Ala]-N-(2Nal)-Lys(DOTA)-D-C(1)-W-(aMe-P)-CONH2] (Ac-WT[NMetBuAla]C[Ala(piperidin-4-yl)]N[2Nal]K(DOTA)DCW[αMeP]-NH2; linker 4-10 via CH2)	< 1	C (% >50)	C (% >50)	C (“C” represents 0 < % IA/g ≤ 10 in)	B (“B” represents % IA/g > 5 in tumor)			
CCCC[C@@H](C(=O)N[C@H]1CSSC[C@@H](C(=O)N[C@@H](Cc2c[nH]c3ccccc23)C(=O)N2CCC[C@H]2C(N)=O)NC(=O)[C@H](CC(=O)O)NC(=O)[C@H](CCCCNC(=O)CN2CCN(CC(=O)O)CCN(CC(=O)O)CCN(CC(=O)O)CC2)NC(=O)[C@H](Cc2ccc3ccccc3c2)NC(=O)[C@H](CC(N)=O)NC(=O)[C@H](CC2CCNCC2)NC1=O)N(C)C(=O)[C@@H](NC(=O)[C@H](Cc1c[nH]c2ccccc12)NC(C)=O)[C@@H](C)O [compound 300, Ac-W-T-(NMe-Nle)-C(3)-[3-(4-piperidinyl)-Ala]-N-(2Nal)-Lys(DOTA)-D-C(3)-W-P-CONH2] (Ac-WT[NMeNle]C[Ala(piperidin-4-yl)]N[2Nal]K(DOTA)DCWP-NH2; disulfide 4-10)	< 1			C (“C” represents 0 < % IA/g ≤ 10 in)	A (“A” represents 0 < % IA/g ≤ 5 in tumor)	B (25 <% ≤50)	B (25 <% ≤50)	
CC(=O)N[C@@H](Cc1c[nH]c2ccccc12)C(=O)N[C@H](C(=O)N[C@H](C(=O)N[C@H]1CSSC[C@@H](C(=O)N[C@@H](Cc2c[nH]c3ccccc23)C(=O)N2CCC[C@H]2C(N)=O)NC(=O)[C@H](CC(=O)O)NC(=O)[C@H](CCCCNC(=O)CN2CCN(CC(=O)O)CCN(CC(=O)O)CCN(CC(=O)O)CC2)NC(=O)[C@H](Cc2ccc3ccccc3c2)NC(=O)[C@H](CC(N)=O)NC(=O)[C@H](CC2CCNCC2)NC1=O)C(C)(C)C)[C@@H](C)O [compound 301, Ac-W-T-(Tbg)-C(3)-[3-(4-piperidinyl)-Ala]-N-(2Nal)-Lys(DOTA)-D-C(3)-W-P-CONH2] (Ac-WT[Tle]C[Ala(piperidin-4-yl)]N[2Nal]K(DOTA)DCWP-NH2; disulfide 4-10)	< 1			C (“C” represents 0 < % IA/g ≤ 10 in)	A (“A” represents 0 < % IA/g ≤ 5 in tumor)	B (25 <% ≤50)	B (25 <% ≤50)	
CC(=O)N[C@@H](Cc1c[nH]c2ccccc12)C(=O)N[C@H](C(=O)N[C@H](C(=O)N[C@H]1CSCSC[C@@H](C(=O)N[C@@H](Cc2c[nH]c3ccccc23)C(=O)N2CCC[C@H]2C(=O)N[C@H](CCCCNC(=O)COCCOCCOCCOCCOCCOCCOCCOCCNC(=O)Cc2ccc(I)cc2)C(N)=O)NC(=O)[C@H](CC(=O)O)NC(=O)[C@H](CCCCNC(=O)CN2CCN(CC(=O)O)CCN(CC(=O)O)CCN(CC(=O)O)CC2)NC(=O)[C@H](Cc2ccc3ccccc3c2)NC(=O)[C@H](CC(N)=O)NC(=O)[C@H](CC2CCNCC2)NC1=O)C1CCCCC1)[C@@H](C)O [compound 417] (Ac-WT[Chg]C[Ala(piperidin-4-yl)]N[2Nal]K(DOTA)DCWP[dK](X2)-NH2; linker 4-10 via CH2)				D (“D” represents % IA/g > 10 in kidney)	B (“B” represents % IA/g > 5 in tumor)	B (25 <% ≤50)	B (25 <% ≤50)	< 1
CC(=O)NCCCC[C@@H](NC(=O)[C@@H]1CCCN1C(=O)[C@H](Cc1c[nH]c2ccccc12)NC(=O)[C@@H]1CSCSC[C@H](NC(=O)[C@H](CC(C)(C)C)N(C)C(=O)[C@@H](NC(=O)[C@H](Cc2c[nH]c3ccccc23)NC(C)=O)C(C)O)C(=O)N[C@@H](CC2CCNCC2)C(=O)N[C@@H](CC(N)=O)C(=O)N[C@@H](Cc2ccc3ccccc3c2)C(=O)N[C@@H](CCCCNC(=O)CN2CCN(CC(=O)O)CCN(CC(=O)O)CCN(CC(=O)O)CC2)C(=O)N[C@@H](CC(=O)O)C(=O)N1)C(N)=O (stereo partly drawn) [compound 445, Ac-W-T-(NMe-tBuAla)-C(1)-[3-(4-piperidinyl)-Ala]-N-(2Nal)-Lys(DOTA)-D-C(1)-W-P-[D-Lys(Ac)]-CONH2] (Ac-W[Thr(3ξ)][NMetBuAla]C[Ala(piperidin-4-yl)]N[2Nal]K(DOTA)DCWP[dK](Ac)-NH2; linker 4-10 via CH2)	< 1	C (% >50)	C (% >50)	C (“C” represents 0 < % IA/g ≤ 10 in)	B (“B” represents % IA/g > 5 in tumor)			

Source: patent US20250049970A1, “DLL3 TARGETING PEPTIDES AND CONSTRUCTS THEREOF” (MARIANA ONCOLOGY INC., priority 2023, published 2025)
